From US20250319053A1, “INHIBITORS OF THE PEPTIDYL-PROLYL CIS/TRANS ISOMERASE (PIN1), COMBINATIONS AND USES THEREOF” (DANA-FARBER CANCER INSTITUTE, INC., priority 2021, published 2025)

Legend:
[1] = tested on: patient-derived PDAC tumors in PDTX mice; assay: Patient-derived tumor orthotopic xenograft (PDTX) mouse model; assay type: in vivo
From the text: Allelic profiling of resulting KPC mice by the B6 panel (Jackson Laboratories) confirmed 129S1/SvImJ with average match of 84.2%, 129S4SvJae with average match of 83.8%, B6N with average match of 65.7% and B6J, with average match of 65.1%. 2) the KPC Genetically engineered mouse-derived orthotopic allografts (GDA) mouse model (Hingorani et al., Cancer Cell 7, 469-483 (2005); Li et al., Comput Struct Biotechnol J 17, 498-506 (2019)). Mouse PDAC cells were established from KPC mouse pancreatic tumor tissues, followed by orthotopically injecting 1×10^6 mouse PDAC cells in 50 μL Matrigel (356231, Coaning) into the pancreas of female 8 week-old syngeneic immunocompetent C57BL/6 mice (Jackson Laboratories). 3) PDAC Patient-derived Tumor orthotopic xenografted (PDTX) mouse model (Gilles et al., Clin Cancer Res 24, 1734-1747 (2018); Rubio-Viqueira et al., Clin Cancer Res 12, 4652-4661 (2006)). PDAC PDX tumors were obtained from Dr. Muthuswamy and Dr. Hidalgo and divided into 4×2 mm pieces, followed by xenografting orthotopically into the pancreas of female 8-week-old immunodeficient NOD.Cg-Prkdc^scid Il12rg^tm1Wjl/SzJ (NOD scid gamma; NSG) mice (Jackson Laboratories). 4) PDAC Patient-derived Organoid and CAFs orthotopic xenograft (PDOX) mouse model (Dantes et al., JCI Insight 5, 137809 (2020); (Koikawa et al., Cancer letters 425, 65-77 (2018)). 5×10^4 patient derived PDAC organoids and 5×10^4 patient derived CAFs in 50 μL of Matrigel were injected orthotopically into the pancreas of female 8 week-old immunodeficient NSG mice (Jackson Laboratories).
Briefly, all mice were randomly selected to receive treatments groups. Tumor sizes were measured by weekly palpation with electronic caliper or ultrasound, and when tumors were reached >0.5 cm, the treatment was started. Briefly, animals were placed under general anesthesia with 2%-3% isoflurane once a week. Under general anesthesia, the abdominal wall became very flaccid, and the muscle tone of the mouse was very low. The mouse was scuffed with the left hand to allow for palpation and measurement with the right hand. This allowed to detect the firm pancreatic mass by palpation, and to determine its size by electronic caliper measurements. […] In the GDA model and PDX models, palpable tumors predictably were detectable within 4-7 days post implantation. […] When the tumor by palpation after age 12 weeks could not be detected, the mice were monitored by ultrasound. Once the maximum length >0.5 cm tumor was detected, the mice were randomized to treatment, and then followed tumor growth by electronic caliper measurement. To validate the external caliper measurements, the tumor size was measured prior to euthanization of the mice and then measured the actual tumor size upon necropsy to ascertain concordance. […]

human PDAC organoids = assay: Organoid apoptosis assay (caspase 3/7) with GEM or 5-FU; assay type: cell-based
Description: The organoids were isolated from Matrigel using collagenase, and seed Matrigel coated 96 well plate, and then treated with control (PBS) or GEM, or control (DMSO) or 5-FU, followed by assaying organoid apoptosis using fluorescent caspase 3/7 and live-cell time lapse imaging for 24 hr. At the start of coculture, a green-fluorescent caspase 3/7 probe reagent (R37111, Invitrogen) and Hoechst (135102, Invitrogen) was added to visualize cells undergoing apoptosis. Apoptotic organoids were monitored by time lapse imaging using BZ-X800 fluorescence microscope (KEYENCE) and quantified using BZ-X800 analyzer (ver. 1.1.1.8, KEYENCE). […] Synergy scores were calculated by Synergyfinder ver 2 (synergyfinder.fimm.fi/) (Ianevski et al., Nucleic Acids Res. 48 IW1), […]-[…] (2020)).

SMILES | Median survival ([1]; PDTX mice, FIG. 8M, GEM 20 mg/kg, n=6, vehicle 36 days) [days] | organoid apoptosis, agent alone (human PDAC organoids; GEM at 25 nM for 24 hrs) | CAF activation (IF for αSMA or PDGFRα) ([1]; PDTX mice, 4 weeks) | collagen deposition (Sirius Red staining) ([1]; PDTX mice, 4 weeks) | tumor growth ([1]; overt tumor-bearing PDTX mice, 4 weeks) | apoptosis in WT organoids (human PDAC organoids; Pin1i−2 at 5 μM 3 days, then GEM at 25 nM for 24 hrs) | GEM-mediated organoid apoptosis (human PDAC organoids; pre-treated with Pin1i−1 at 10 μM or Pin1i−2 at 5 μM for 72 hrs, then GEM at 25 nM for 24 hrs)
Nc1ccn([C@@H]2O[C@H](CO)[C@@H](O)C2(F)F)c(=O)n1 [GEM, gemcitabine, reference compound] | 42.5 | neither Pin1i nor GEM alone had obvious effect | – | – | – | – | –
CC(C)(C)CN(C(=O)CCl)C1CCS(=O)(=O)C1 (stereo not shown) [Pin1i−2, sulfopin] | – | – | significantly reduced | significantly reduced | significantly reduced tumor growth | induced apoptosis in WT organoids | greatly potentiated GEM-mediated organoid apoptosis
